What all share (type): cell-based
One assay has as its system GP2D cells. The assay is described as follows: GP2D cell proliferation (CellTiter-Glo). The settings on record: 72 hr, 0.5% DMSO, read-out: CTG(IC50) ABS-72 H(nM) GP2D. The procedure:
(§1) AGS, A-427, ASPC1, SW 1990, and GP2D cells were plated in 96-well tissue culture plates at 4,000 cells/well and incubated at 37° […] for 72 hr in 100 μl of media. 3-old serial dilutions of each test compound were prepared ranging from 20 μM to 1.02 nM. Each cell line was then treated with test compounds at various concentrations with a final concentration of 0.5% DMSO/well, and then incubated at 37° C./5% CO2 for 72 hr. 100 μl of CellTiter-Glo® Reagent (Promega Corporation, Madison, WI) was added to each well and processed according manufacturer's protocol. Results were analyzed and IC50 values were calculated in GraphPad 7 software. AGS proliferation assay: A. EC50<100 nM; B. EC50=100-1000 nM; C. EC50>1000 nM; GP2D proliferation assay: A. EC50<100 nM; B. EC50=100-1000 nM; C. EC50>1000 nM; MKN1 proliferation assay: A. EC50<100 nM; B. EC50=100-1000 nM; C. EC50>1000 nM;
For orientation: Cellular ATP, detected with luciferase, serves as a proxy for viable cell number.

The test system of another assay is MKN1 cells. In words: MKN1 cell proliferation (CellTiter-Glo). The settings on record: 0.5% DMSO, read-out: CTG(IC50) ABS-72 H(nM) MKN1. The procedure: as §1
A further assay has as its system AGS cells. The assay is described as follows: AGS cell proliferation (CellTiter-Glo). The settings on record: AGS gastric carcinoma [heterozygous G12D], 72 hr, 0.5% DMSO, read-out: CTG(IC50) ABS-72 H(nM) AGS. The procedure: The following cancer cell lines were employed: AGS gastric carcinoma [heterozygous G12D](ATCC, CRL-1739); A-427 lung carcinoma [heterozygous G12D](ATCC, HTB-53); ASPC1 pancreatic adenocarcinoma [homozygous G12D](ATCC, CRL-1682) and SW 1990 pancreatic adenocarcinoma [homozygous G12D](ATCC CRL-2172). Cell lines were cultured essentially according to ATCC recommendations.
as §1

Drawing on patent US20260297113A1, “DIAZABICYCLOOCTANE INHIBITORS OF KRAS(G12D) AND USES” (Ranok Therapeutics (Hangzhou) Co. Ltd., priority 2023, published 2026), this text covers IC50 for 18 molecules.

Read-outs that look alike come from different tables or passages of the source. A value given as a limit tells only on which side of the number the result lay.

For “2-(3-(2-[(1-(3-azabicyclo[3.1.0]hexan-3-ylmethylcyclopropyl) methoxy]-7-(8-ethynyl-7-fluoro-3-hydroxynaphthalen-1-yl)-8-fluoro-5-methoxypyrido[4,3-d]pyrimidin-4-yl-3,8-diazabicyclo[3.2.1]octan-8-yl)acetonitrile [Compound 1]”, the results for the IC50 with GP2D cells, in the assay with MKN1 cells (72 hr) and in the assay with AGS cells were less than 100 nM, more than 1000 nM and less than 100 nM, respectively.

Consider `C#Cc1c(F)ccc2cc(O)cc(-c3nc(OC)c4c(N5CC6CCC(C5)N6C(=O)C#N)nc(OCC5(CN6CC7CC7C6)CC5)nc4c3F)c12` (centres unmarked) [Compound 2], for which the IC50 (usually the concentration at which inhibition is half-maximal) with GP2D cells is less than 100 nM; with MKN1 cells (Homo sapiens, MKN-1, 72 hr), 100 to 1000 nM; in the assay with AGS cells (Homo sapiens) it was less than 100 nM.

For the molecule `C#Cc1c(F)ccc2cc(O)cc(-c3nc(OC)c4c(N5CC6CCC(C5)N6CCC#N)nc(OCC5(CN6CC7CC7C6)CC5)nc4c3F)c12` (centres unmarked) [Compound 3], the IC50 in the assay on GP2D cells was less than 100 nM; in the assay with MKN1 cells (Homo sapiens, MKN-1, 72 hr), more than 1000 nM; in the assay on AGS cells (Homo sapiens) it was 100 to 1000 nM.

With `C#Cc1c(F)ccc2cc(O)cc(-c3nc(OC)c4c(N5CC6CCC(C5)N6CC(F)(F)F)nc(OCC5(CN6CC7CC7C6)CC5)nc4c3F)c12` (centres unmarked) [Compound 4], the IC50 was 100 to 1000 nM with GP2D cells; more than 1000 nM in the assay with MKN1 cells (Homo sapiens, MKN-1, 72 hr); more than 1000 nM in the assay with AGS cells (Homo sapiens).

On to `C#Cc1c(F)ccc2cc(O)cc(-c3nc(OC)c4c(N5CC6CCC(C5)N6CCOC)nc(OCC5(CN6CC7CC7C6)CC5)nc4c3F)c12` (centres unmarked) [Compound 5], for which the IC50 was less than 100 nM with GP2D cells; more than 1000 nM in the assay on MKN1 cells (Homo sapiens, MKN-1, 72 hr); 100 to 1000 nM in the assay on AGS cells (Homo sapiens).

For the molecule `C#Cc1c(F)ccc2cc(O)cc(-c3nc(OC)c4c(N5CC6CCC(C5)N6CCO)nc(OCC5(CN6CC7CC7C6)CC5)nc4c3F)c12` (centres unmarked) [Compound 6], the concentration for half-maximal inhibition (IC50) in the assay with GP2D cells was less than 100 nM; with MKN1 cells (Homo sapiens, MKN-1, 72 hr) it was 100 to 1000 nM; in the assay on AGS cells (Homo sapiens) it was 100 to 1000 nM.

`C#Cc1c(F)ccc2cc(O)cc(-c3nc(OC)c4c(N5CC6CCC(C5)N6CCCO)nc(OCC5(CN6CC7CC7C6)CC5)nc4c3F)c12` (centres unmarked) [Compound 7]: the IC50 in the assay on GP2D cells was less than 100 nM; in the assay on MKN1 cells (Homo sapiens, MKN-1, 72 hr), 100 to 1000 nM; in the assay on AGS cells (Homo sapiens) it was 100 to 1000 nM.

`C#Cc1c(F)ccc2cc(O)cc(-c3nc(OC)c4c(N5CC6CCC(C5)N6CC#N)nc(OC[C@]56CCCN5C[C@@H](F)C6)nc4c3F)c12` [Compound 8]: the IC50 is less than 100 nM in the assay with GP2D cells; more than 1000 nM in the assay with MKN1 cells (Homo sapiens, MKN-1, 72 hr); less than 100 nM in the assay with AGS cells (Homo sapiens).

Turning to `C#CCN1C2CCC1CN(c1nc(OCC3(CN4CC5CC5C4)CC3)nc3c(F)c(-c4cc(O)cc5ccc(F)c(C#C)c45)nc(OC)c13)C2` (centres unmarked) [Compound 9], the IC50 in the assay with GP2D cells is less than 100 nM; with MKN1 cells (Homo sapiens, MKN-1, 72 hr), more than 1000 nM; in the assay on AGS cells (Homo sapiens), less than 100 nM.

For the molecule `[2H]C([2H])([2H])Oc1nc(-c2cc(O)cc3ccc(F)c(C#C)c23)c(F)c2nc(OCC3(CN4CC5CC5C4)CC3)nc(N3CC4CCC(C3)N4C#N)c12` (centres unmarked) [Compound 10], the IC50 is less than 100 nM with GP2D cells; 100 to 1000 nM in the assay with MKN1 cells (Homo sapiens, MKN-1, 72 hr); 100 to 1000 nM in the assay with AGS cells (Homo sapiens).

For `[2H]C([2H])([2H])Oc1nc(-c2cc(O)cc3ccc(F)c(C#C)c23)c(F)c2nc(OCC3(CN4CC5CC5C4)CC3)nc(N3CC4CCC(C3)N4CC#N)c12` (centres unmarked) [Compound 11], the IC50 in the assay on GP2D cells is less than 100 nM; in the assay with MKN1 cells (Homo sapiens, MKN-1, 72 hr), 100 to 1000 nM; with AGS cells (Homo sapiens), less than 100 nM.

For the molecule `C#Cc1c(F)ccc2cc(O)cc(-c3nc(OC)c4c(N5CC6CCC(C5)N6CC(C)=O)nc(OCC5(CN6CC7CC7C6)CC5)nc4c3F)c12` (centres unmarked) [Compound 12], the IC50 is less than 100 nM in the assay on GP2D cells; more than 1000 nM in the assay on MKN1 cells (Homo sapiens, MKN-1, 72 hr); less than 100 nM in the assay on AGS cells (Homo sapiens).

For the molecule `C#Cc1c(F)ccc2cc(O)cc(-c3nc(OC)c4c(N5CC6CCC(C5)N6CC(F)F)nc(OCC5(CN6CC7CC7C6)CC5)nc4c3F)c12` (centres unmarked) [Compound 13], the IC50 was 100 to 1000 nM in the assay with GP2D cells; more than 1000 nM with MKN1 cells (Homo sapiens, MKN-1, 72 hr); 100 to 1000 nM in the assay on AGS cells (Homo sapiens).

With `C#Cc1c(F)ccc2cc(O)cc(-c3nc(OC)c4c(N5CC6CCC(C5)N6CCCC#N)nc(OCC5(CN6CC7CC7C6)CC5)nc4c3F)c12` (centres unmarked) [Compound 14], the half-inhibitory concentration (IC50) is less than 100 nM with GP2D cells; 100 to 1000 nM in the assay on MKN1 cells (Homo sapiens, MKN-1, 72 hr); less than 100 nM with AGS cells (Homo sapiens).

Consider `C#Cc1c(F)ccc2cc(O)cc(-c3nc(OC)c4c(N5CC6CCC(C5)N6C(C)CCC#N)nc(OCC5(CN6CC7CC7C6)CC5)nc4c3F)c12` (centres unmarked) [Compound 15], for which the IC50 in the assay on GP2D cells was more than 1000 nM; in the assay with MKN1 cells (Homo sapiens, MKN-1, 72 hr), more than 1000 nM; in the assay on AGS cells (Homo sapiens) it was 100 to 1000 nM.

As to `C#Cc1c(F)ccc2cc(O)cc(-c3nc(OC)c4c(N5CC6CCC(C5)N6CCC(=O)O)nc(OCC5(CN6CCC(F)CC6)CC5)nc4c3F)c12` [Compound 16], the half-maximal inhibitory concentration (IC50) in the assay on GP2D cells is 100 to 1000 nM; in the assay with MKN1 cells (Homo sapiens, MKN-1, 72 hr) it was more than 1000 nM; with AGS cells (Homo sapiens), more than 1000 nM.

Take `C#Cc1c(F)ccc2cc(O)cc(-c3nc(OC)c4c(N5CC6CCC(C5)N6CCCF)nc(OCC5(CN6CCC(F)CC6)CC5)nc4c3F)c12` [Compound 17]: the IC50 was less than 100 nM in the assay with GP2D cells; more than 1000 nM with MKN1 cells (Homo sapiens, MKN-1, 72 hr); 100 to 1000 nM in the assay with AGS cells (Homo sapiens).

On to `C#Cc1c(F)ccc2cc(O)cc(-c3nc(OC)c4c(N5CC6CCC(C5)N6CC(=O)O)nc(OCC5(CN6CCC(F)CC6)CC5)nc4c3F)c12` [Compound 18], for which the IC50 in the assay with MKN1 cells (Homo sapiens, MKN-1, 72 hr) is more than 1000 nM; in the assay with AGS cells (Homo sapiens), more than 1000 nM.
